Test results as given in paper PMC3509626, “Antifungal Activity of (KW)n or (RW)n Peptide against Fusarium solani and Fusarium oxysporum” (International Journal of Molecular Sciences, 2012).
Read-outs that look alike come from different tables or passages of the source. Ends that are not written are not given here.

What was measured:
Assay type in all cases: cell-based
[1] = system: Fusarium oxysporum (KCTC 6076); conditions: KCTC 6076, 3 h
Method: (§1) Rink amide 4-methylbenzhydrylamine resin, fluoren-9-ylmethoxycarbonyl (Fmoc) amino acids, and other reagents for peptide synthesis were purchased from Calibiochem-Novabiochem (La Jolla, CA, USA). For the quantitative antifungal assay and fungicidal activity assay, the following fungal strains were obtained from the Korea Collection for Type Cultures (KCTC): F. solani (KCTC 6326) and F. oxysporum (KCTC 6076). Fungal cells were grown on PDA (potato dextrose agar) plate and subcultured for 2–3 weeks.
(§2) The spore suspension at a concentration of 5 × 10^4 spores/mL (80 μL) was transferred to a 96-well microtiter plate along with 20 μL of (KW)n or (RW)n peptides (n = 3, 4, and 5), melittin, or media to give final peptide concentrations of 4–32 μM. Plates were incubated for 3 h before the addition of 10 μL of 3-(4,5-dimethylthiazol-2-yl)-2,5-diphenyltetrazolium bromide (MTT; 5 mg/mL; Sigma). Plates were then incubated again for 16 h at room temperature, followed by the addition of 100 μL of MTT solvent (0.1 N HCl in anhydrous isopropyl alcohol). Presence of MTT/formazan was monitored spectrophotometrically by measuring the absorbance at 570 nm and then subtracting the background absorbance at 690 nm using a Versa-Max microplate Elisa reader (Molecular Devices, Sunnyvale, CA, USA). Each measurement was conducted in triplicate.

[2] = system: Fusarium solani (KCTC 6326); conditions: KCTC 6326, 3 h
Method: as §1, §2

[3] = system: Fusarium solani (KCTC 6326); conditions: for concentration at which antifungal effects were exhibited (below MIC): KCTC 6326, 24 h; for growth inhibition (conidial germination and hyphal growth): F. solani, peptide at 64 μM, 24 h, 25 °C
Method: as §1
(§3) Fungal fragments, precultured in mycelial growth medium, were placed in the center of PDA plates, after which the cultures were incubated for 96 h at 25 °C in the dark. After incubation, spores were isolated from cultures growing in half-strength PDA. Spore concentrations were then adjusted to 5 × 10^4 spores/mL in half-strength PDA, after which 80 μL was added to the wells of sterile 96-well flat-bottomed microtiter plates along with 20 μL of peptide or media to give final concentrations of 1–64 μM. Several wells were kept untreated as a control to monitor fungal growth. Plates were incubated in the dark at 25 °C for 24 h before hyphal growth was determined by measuring optical density at 595 nm using a microtiter plate Elisa reader (Molecular Devices, Sunnyvale, CA, USA). Each test was performed in triplicate. Percentages of inhibition were then calculated (Figure 1) (0% inhibition indicates growth equal to control sample (only media)). The lowest concentration of peptide inhibiting fungal growth was monitored microscopically with an inverted light microscope (IX71, Olympus, Tokyo, Japan).

[4] = system: Fusarium oxysporum (KCTC 6076); conditions: F. oxysporum, peptide at 64 μM, 24 h, 25 °C
Method: as §1, §3

N=C(N)NCCC[C@H](NC(=O)[C@H](Cc1c[nH]c2ccccc12)NC(=O)[C@H](CCCNC(=N)N)NC(=O)[C@H](Cc1c[nH]c2ccccc12)NC(=O)[C@H](CCCNC(=N)N)NC(=O)[C@H](Cc1c[nH]c2ccccc12)NC(=O)[C@H](CCCNC(=N)N)NC(=O)[C@H](Cc1c[nH]c2ccccc12)NC(=O)[C@@H](N)CCCNC(=N)N)C(=O)N[C@@H](Cc1c[nH]c2ccccc12)C(N)=O [(RW)5, RWRWRWRWRW-NH2]
cells killed [1]: 79%
cells killed [2]: 75%

KWKWKWKW-NH2 [(KW)4, KWKWKWKW-NH2]
concentration at which antifungal effects were exhibited (below MIC) [3]: 4 µM
cells killed [1]: 74%
cells killed [2]: 68%

RWRWRWRW-NH2 [(RW)4, RWRWRWRW-NH2]
concentration at which antifungal effects were exhibited (below MIC) [3]: 4 µM
cells killed [1]: 76%
cells killed [2]: 69%

KWKW-NH2 [(KW)2, tetrameric Lys-Trp repeat peptide amide]
growth inhibition (conidial germination and hyphal growth) [4]: did not inhibit growth
growth inhibition (conidial germination and hyphal growth) ([4]; listed as (KW)2-NH2): non-inhibition
growth inhibition (conidial germination and hyphal growth) [3]: did not inhibit growth
growth inhibition (conidial germination and hyphal growth) ([3]; listed as (KW)2-NH2): non-inhibition

RWRW-NH2 [(RW)2, tetrameric Arg-Trp repeat peptide amide]
growth inhibition (conidial germination and hyphal growth) [4]: did not inhibit growth
growth inhibition (conidial germination and hyphal growth) ([4]; listed as (RW)2-NH2): non-inhibition
growth inhibition (conidial germination and hyphal growth) [3]: did not inhibit growth
growth inhibition (conidial germination and hyphal growth) ([3]; listed as (RW)2-NH2): non-inhibition

KWKWKWKWKW-NH2 [(KW)5, KWKWKWKWKW-NH2]
cells killed [1]: 76%
cells killed [2]: 72%
